Test results taken from patent US11014934B2, “Antiseptic drug” (AO “TATKHIMFARMPREPARATY”, priority 2017, dated 2021).
Like-named read-outs stand apart in the source and are kept apart here.

Experiments:
Asp. fumigates = test: Sensitivity of microscopic fungi in solution (colonies after exposure); type: cell-based
Description: (§1) For the preparation of inoculum, were respectively used pure (2-5) days cultures of yeast and mycelial fungi, grown on Saburo's dense nutrient broth. Inoculum for plating was prepared in different ways, depending on the type of fungi. Thus, yeast crops (C. albicans) were prepared by washing the culture from an agar stroke. Cultures of mycelial fungi (Rh. oryzae, Asp. fumigatus) were pre-degraded in a pounder. A suspension of microorganisms was prepared in a sterile isotonic sodium chloride solution, bringing the inoculum density to 5 UNITS (GISK [State Research Institute of Standardization and Control] named after L. A. Tarasevich) or according to the McFarland standard 1 UNIT with a concentration of at least 1×10^6 CFU/ml, considering that the size of the fungal elements is approximately 10 times the size of bacteria (this provided the possibility of creating a mixture of biocide with suspension, the concentration of microorganisms of the order of 1×10^5 CFU/ml).
(§2) Solutions of compound I, miramistin, and benzalkonium chloride in working concentrations (0.1%, 0.2%, 0.3%) were poured into sterile 0.9 ml tubes. 0.1 ml of microbial suspension was added to test tubes with disinfectant solutions and mixed by shaking for several seconds. The exposition lasted for 1, 5, and 15 minutes. After required temporary exposure for action of the disinfectant, 0.5 ml of the neutralizer solution was added and mixed by shaking.
(§3) Then, 0.1 ml of the mixture was inoculated on a dense nutrient medium and the plates with inoculate were placed in a thermostat with a temperature of 27° C. for (2-4) days for yeast and (5-7) days for mycelial fungi, respectively.
(§4) After the time required for the cultivation of microorganisms of this species, the results were counted according to the number of colonies grown on the Petri dish. In the absence of growth, the time for culturing microorganisms was increased by a factor of 2. The grown colonies were subjected to microscopy.
(§5) The tested substances were studied on clinical and archival strains of yeast and mycelial fungi. As comparison drugs, drugs commonly used in clinical practice were used: miramistin and benzalconium chloride. After the required exposure time for action of the disinfectant, a series of 0.1 ml mixture was aseptically plated on the surface of a dense nutrient medium in Petri dishes. After the time of cultivation of microorganisms, the results were counted according to the number of colonies grown on the Petri dish.

C. albicans = test: as above; type: cell-based
Description: as §1, §2, §3, §4, §5

all bacterial strains = test: MIC screening, summary for all bacterial strains; type: cell-based
Description: A comparative assessment of the spectrum of antibacterial action was carried out on archival and clinical strains of gram-positive and gram-negative microorganisms in accordance with the [Opredeleniye chuvstvitel'nosti mikroorganizmov k antibakterial'nym preparatam (Metodicheskiye ukazaniya MUK 4.2.1890-04). Utverzhdeny i vvedeny v deystviye Glavnym gosudarstvennym sanitarnym vrachom Rossiyskoy Federatsii G. G. Onishchenko 04.03.2004 g. Determination of the sensitivity of microorganisms to antibacterial drugs (Guidelines MUK 4.2.1890-04). Approved and put into effect by the Chief State Sanitary Doctor of the Russian Federation G. G. Onishchenko on 4 Mar. 2004].
The value of the minimum inhibitory concentration (MIC) was determined by the method of serial dilutions on Müller-Hinton broth using 96-well sterile plates. […] The growth of cultures was assessed visually, comparing the growth of microorganisms in the presence of test compounds with the growth of culture without them. […] The first lowest concentration of the studied substance (from a series of consecutive dilutions), where bacterial growth is not visually determined, is considered to be the minimum inhibitory concentration (MIC). MIC was determined by the method of serial dilutions in broth with increment=2, so the differences of neighboring dilutions are not considered to be significant. […]

mice = conditions: intragastric administration on mice; literature and safety data sheets; cited from earlier work

Molecule | Number of colonies grown in a Petri dish (Asp. fumigates; exposure 5 min, 0.1% solution) | Number of colonies grown in a Petri dish (C. albicans; exposure 1 min, 0.1% solution) | Number of colonies grown in a Petri dish (C. albicans; exposure 5 min, 0.1% solution) | MIC (all bacterial strains; read-out: MIC100) | Number of colonies grown in a Petri dish (Asp. fumigates; exposure 1 min, 0.1% solution) | Number of colonies grown in a Petri dish (Asp. fumigates; exposure 1 min, 0.2% solution) | Number of colonies grown in a Petri dish (Asp. fumigates; exposure 15 min, 0.1% solution) | Number of colonies grown in a Petri dish (C. albicans; exposure 1 min, 0.2% solution) | LD50 (mice) | MIC (all bacterial strains; all bacterial strains, read-out: MIC89)
CCCCCCCCCCCC[N+](C)(C)Cc1cnc(C[N+](C)(C)CCCCCCCCCCCC)c2c1COC(CC)O2 (centres unmarked) [Compound I, 5,8-(Bis(methylene (N, N-dimethyl-N-dodecylammonium))-2-ethyl-4H-[1,3]dioxino [4,5-c]pyridiniumdichloride] | 1 | 3 | 1 | < 64 µg/mL |  |  |  |  |  | 
CCCCCCCCCCCCCC(=O)NCCC[N+](C)(C)Cc1ccccc1.O.[Cl-] [Miramistin, benzyldimethyl [3-(myristoylamino)propyl]-ammonium chloride monohydrate] | 12 | 12 | 7 |  | 20 | 10 | 2 | 5 | 1000 mg/kg | < 64 µg/mL
alkyldimethyl(phenylmethyl) ammonium chloride [Benzalconium chloride] |  |  |  |  |  |  |  |  | 150 mg/kg | 
